Experimental data published in patent publication US11174251B2, “Compositions and methods for inhibition of the JAK pathway” (Rigel Pharmaceuticals, Inc., priority 2010, dated 2021).
Counter-ions that a name gives are not always drawn.

Molecular target: T1, JAK3 (Homo sapiens, UniProt P52333)
T1 construct: The Ramos B-cell line was acquired from ATCC (ATCC Catalog No. CRL-1596); host or cells: Ramos B-cell line (human)
T1 sequence (P52333 1-1124): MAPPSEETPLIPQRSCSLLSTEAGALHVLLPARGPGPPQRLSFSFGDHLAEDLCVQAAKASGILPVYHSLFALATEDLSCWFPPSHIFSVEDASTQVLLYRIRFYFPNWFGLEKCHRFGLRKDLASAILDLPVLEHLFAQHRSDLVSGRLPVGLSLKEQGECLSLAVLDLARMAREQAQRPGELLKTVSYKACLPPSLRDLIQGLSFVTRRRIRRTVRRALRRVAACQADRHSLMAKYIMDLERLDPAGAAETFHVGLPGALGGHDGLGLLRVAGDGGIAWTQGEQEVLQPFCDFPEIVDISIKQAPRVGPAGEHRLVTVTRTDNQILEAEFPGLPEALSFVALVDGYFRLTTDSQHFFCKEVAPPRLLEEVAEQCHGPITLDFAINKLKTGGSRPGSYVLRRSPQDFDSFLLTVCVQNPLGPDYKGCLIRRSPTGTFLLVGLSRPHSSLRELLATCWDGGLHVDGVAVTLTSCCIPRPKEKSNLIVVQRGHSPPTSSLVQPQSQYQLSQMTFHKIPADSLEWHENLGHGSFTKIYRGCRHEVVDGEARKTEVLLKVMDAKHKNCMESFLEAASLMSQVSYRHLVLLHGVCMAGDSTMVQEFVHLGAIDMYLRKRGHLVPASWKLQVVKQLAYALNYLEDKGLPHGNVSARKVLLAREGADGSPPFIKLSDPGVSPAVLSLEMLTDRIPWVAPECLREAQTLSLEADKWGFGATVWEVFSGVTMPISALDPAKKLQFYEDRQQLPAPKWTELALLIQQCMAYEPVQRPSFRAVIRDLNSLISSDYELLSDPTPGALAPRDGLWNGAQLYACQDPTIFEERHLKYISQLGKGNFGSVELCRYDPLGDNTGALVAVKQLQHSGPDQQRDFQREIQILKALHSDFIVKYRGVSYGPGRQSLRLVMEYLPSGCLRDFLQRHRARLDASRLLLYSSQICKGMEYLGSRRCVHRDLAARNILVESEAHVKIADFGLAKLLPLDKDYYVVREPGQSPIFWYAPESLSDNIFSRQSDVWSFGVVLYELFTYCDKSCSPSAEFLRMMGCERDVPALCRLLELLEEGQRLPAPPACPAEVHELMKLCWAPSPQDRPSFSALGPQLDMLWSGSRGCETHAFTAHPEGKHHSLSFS
Assay: Assay for CD23 expression on Ramos B-cells stimulated by IL-4 (Table IV: ability to inhibit JAK3 activity)
Assay type: cell-based
Conditions: tested under conditions described in Example 3 (so in the source)
Method in brief: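 Human Ramos B cells in RPMI with 5% serum, pre-incubated 1 h at 37 °C with compound or DMSO, then stimulated with IL-4 (final 50 units/mL) for 20–24 h. Surface CD23 upregulation measured by FACS staining as readout of JAK1/JAK3–Stat-6 signalling.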

Row | SMILES | IC50 [nM]
1 | Cc1ccc(Nc2ncc(F)c(Nc3ccc4oc(=O)[nH]c4c3)n2)cc1S(C)(=O)=O [Compound I-167, 5-(2-(4-methyl-3-(methylsulfonyl)phenylamino)-5-fluoropyrimidin-4-ylamino)benzo[d]oxazol-2(3H)-one trifluoroacetate salt] | < 500
2 | CCCNC(=O)c1ccc(Nc2ncc(F)c(Nc3ccc4oc(=O)[nH]c4c3)n2)cc1 [Compound I-160, 4-(5-fluoro-4-(2-oxo-2,3-dihydrobenzo[d]oxazol-5-ylamino)pyrimidin-2-ylamino)-N-propylbenzamide formate salt] | < 500
3 | Cc1cnc(Nc2cc(C)c(F)c(C(=O)O)c2)nc1Nc1ccc2oc(=O)[nH]c2c1 [Compound I-155, N2-(3-carboxy-4-fluoro-5-methyl)phenyl-5-methyl-N4-(2-oxo-2,3-dihydro-1,3-benzoxazol-5-yl)-2,4-pyrimidinediamine] | 500 to 5000
4 | Cc1ccc(Nc2ncc(F)c(Nc3ccc4oc(=O)[nH]c4c3)n2)cc1C#N [Compound I-1, 5-(5-fluoro-4-(2-oxo-2,3-dihydrobenzo[d]oxazol-5-ylamino)pyrimidin-2-ylamino)-2-methylbenzonitrile formate salt] | < 500
5 | CCNc1cc(Nc2ncc(C)c(Nc3ccc4oc(=O)[nH]c4c3)n2)cc(C)c1C [Compound I-85, 5-(2-(3-(ethylamino)-4,5-dimethylphenylamino)-5-methylpyrimidin-4-ylamino)benzo[d]oxazol-2(3H)-one formate salt] | < 500
6 | O=c1[nH]c2cc(Nc3nc(Nc4ccc(F)c(-c5ccncc5)c4)ncc3F)ccc2o1 [Compound I-205, 5-(2-(4-fluoro-3-(pyridin-4-yl)phenylamino)-5-fluoropyrimidin-4-ylamino)benzo[d]oxazol-2(3H)-one] | < 500
7 | CCN(CC)c1cc(Nc2ncc(C)c(Nc3ccc4oc(=O)[nH]c4c3)n2)cc(C)c1C [Compound I-84, 5-(2-(3-(diethylamino)-4,5-dimethylphenylamino)-5-methylpyrimidin-4-ylamino)benzo[d]oxazol-2(3H)-one formate salt] | < 500
8 | CCCCc1ccc(Nc2ncc(C)c(Nc3ccc4oc(=O)[nH]c4c3)n2)cc1C [Compound I-148, N2-(4-n-butyl-3-methyl)phenyl-5-methyl-N4-(2-oxo-2,3-dihydro-1,3-benzoxazol-5-yl)-2,4-pyrimidinediamine] | 5000 to 10000
9 | COc1cc(Nc2ncc(C)c(Nc3ccc4oc(=O)[nH]c4c3)n2)c(F)cc1C [Compound I-122, 5-(2-(2-fluoro-5-methoxy-4-methylphenylamino)-5-methylpyrimidin-4-ylamino)benzo[d]oxazol-2(3H)-one trifluoroacetate salt] | 500 to 5000
10 | Cc1cnc(Nc2cc(C)c(C#N)c(C)c2)nc1Nc1ccc2oc(=O)[nH]c2c1 [Compound I-64, 2,6-Dimethyl-4-[5-methyl-4-(2-oxo-2,3-dihydro-benzooxazol-5-ylamino)-pyrimidin-2-ylamino]-benzonitrile trifluoroacetate salt] | < 500
11 | Cc1cnc(Nc2cc(C)c(C)c(C)c2)nc1Nc1ccc2oc(=O)n(COP(=O)(O)OCCN(C)C)c2c1 [Compound I-133, N4-{3-[2-(N,N-dimethylamino)ethoxy]phosphinyloxymethyl-2-oxo-2,3-dihydro-1,3-benzoxazol-5-yl}-5-methyl-N2-(3,4,5-trimethyl)phenyl-2,4-pyrimidinediamine] | 5000 to 10000
12 | Cc1ccc(Nc2ncc(Cl)c(Nc3ccc4oc(=O)[nH]c4c3)n2)cc1C [Compound I-5, 5-(5-chloro-2-(3,4-dimethylphenylamino)pyrimidin-4-ylamino)benzo[d]oxazol-2(3H)-one trifluoroacetate salt] | < 500
13 | COc1c(F)ccc(Nc2ncc(F)c(Nc3cc(C)c4oc(=O)[nH]c4c3)n2)c1F [Compound I-192, 5-(2-(2,4-difluoro-3-methoxyphenylamino)-5-fluoropyrimidin-4-ylamino)-7-methylbenzo[d]oxazol-2(3H)-one trifluoroacetate salt] | 500 to 5000
14 | COc1cccc(Nc2ncc(Br)c(Nc3ccc4oc(=O)[nH]c4c3)n2)c1F [Compound I-22, 5-(5-bromo-2-(2-fluoro-3-methoxyphenylamino)pyrimidin-4-ylamino)benzo[d]oxazol-2(3H)-one trifluoroacetate salt] | < 500
15 | COc1cc(Nc2ncc(F)c(Nc3cc(C)c4oc(=O)[nH]c4c3)n2)cc(C)c1OC [Compound I-183, 5-(2-(3,4-dimethoxy-5-methylphenylamino)-5-fluoropyrimidin-4-ylamino)-7-methylbenzo[d]oxazol-2(3H)-one trifluoroacetate salt] | < 500
16 | COC(=O)c1cnc(Nc2ccc(C)c(N(C)C)c2)nc1Nc1ccc2oc(=O)[nH]c2c1 [Compound I-57, 2-(3-Dimethylamino-4-methyl-phenylamino)-4-(2-oxo-2,3-dihydro-benzooxazol-5-ylamino)-pyrimidine-5-carboxylic acid methyl ester trifluoroacetate salt] | > 10000
17 | Cc1cnc(Nc2ccc3c(c2)COC3=O)nc1Nc1ccc2oc(=O)[nH]c2c1 [II-10, 5-methyl-N4-(2-oxo-2,3-dihydro-1,3-benzoxazol-5-yl)-N2-(1-oxo-1,3-dihydro-isobenzofuran-5-yl)-2,4-pyrimidinediamine] | < 500
18 | [2H]C([2H])([2H])Oc1cc(C)cc(Nc2ncc(F)c(Nc3ccc4oc(=O)[nH]c4c3)n2)c1 [Compound I-175, 5-(5-fluoro-2-(3-d3-methoxy-5-methylphenylamino)pyrimidin-4-ylamino)benzo[d]oxazol-2(3H)-one trifluoroacetate salt] | < 500
19 | CS(=O)(=O)c1cc(Nc2ncc(F)c(Nc3ccc4oc(=O)[nH]c4c3)n2)ccc1F [Compound I-168, 5-(2-(4-fluoro-3-(methylsulfonyl)phenylamino)-5-fluoropyrimidin-4-ylamino)benzo[d]oxazol-2(3H)-one trifluoroacetate salt] | < 500
20 | CC(=O)c1ccc(Nc2ncc(F)c(Nc3ccc4oc(=O)[nH]c4c3)n2)cc1 [Compound I-157, 5-(2-(4-acetylphenylamino)-5-fluoropyrimidin-4-ylamino)benzo[d]oxazol-2(3H)-one formate salt] | < 500
21 | COc1cc(Nc2ncc(F)c(Nc3ccc4oc(=O)[nH]c4c3)n2)ccc1C(=O)NC1CCC1 [Compound I-164, N-cyclobutyl-4-(5-fluoro-4-(2-oxo-2,3-dihydrobenzo[d]oxazol-5-ylamino)pyrimidin-2-ylamino)-2-methoxybenzamide formate salt] | < 500
22 | O=C1CCc2cc(Nc3ncc(F)c(Nc4ccc5oc(=O)[nH]c5c4)n3)ccc2N1 [II-26, 6-(4-(2,3-dihydro-2-oxobenzo[d]oxazol-5-ylamino)-5-fluoropyrimidin-2-ylamino)-3,4-dihydroquinolin-2(1H)-one trifluoroacetate salt] | < 500
23 | Cc1cnc(Nc2cc(C)c(Br)c(C)c2)nc1Nc1ccc2oc(=O)[nH]c2c1 [Compound I-149, N2-(4-bromo-3,5-dimethyl)phenyl-5-methyl-N4-(2-oxo-2,3-dihydro-1,3-benzoxazol-5-yl)-2,4-pyrimidinediamine] | < 500
24 | Cc1cnc(Nc2cc(C)c(C)c(C)c2)nc1Nc1ccc2oc(=O)n(COP(=O)(O)O)c2c1 [Compound I-136, 5-methyl-N4-[3-(phosphonooxy)methyl-2-oxo-2,3-dihydro-1,3-benzoxazol-5-yl]-N2-(3,4,5-trimethyl)phenyl-2,4-pyrimidinediamine dipotassium salt] | 500 to 5000
25 | COc1ccc(Nc2ncc(F)c(Nc3cc(C)c4oc(=O)[nH]c4c3)n2)cc1C [Compound I-178, 5-(2-(4-methoxy-3-methylphenylamino)-5-fluoropyrimidin-4-ylamino)-7-methylbenzo[d]oxazol-2(3H)-one trifluoroacetate salt] | < 500
26 | COc1cc(Nc2ncc(C)c(Nc3ccc4oc(=O)[nH]c4c3)n2)cc(C)c1Cl [Compound I-124, 5-(2-(4-chloro-3-methoxy-5-methylphenylamino)-5-methylpyrimidin-4-ylamino)benzo[d]oxazol-2(3H)-one trifluoroacetate salt] | < 500
